Data as given in patent US20230082430A1 (C4 Therapeutics, Inc., priority 2019, published 2023).
Structures can show the parent of a compound that is named as a salt.

Each compound was assayed on NCIH929.1 cells (assay: Cell viability assay for Table 2 (CellTiter-Glo 2.0, ATP quantification, 96 hr)). Settings: 96 h.
Type: cell-based
From the text: Cell Viability Assay for Table 2
CellTiter-Glo® 2.0 Assay was purchased from Promega (Madison, Wis., USA). NCIH929.1 cell line was purchased from ATCC (Manassas, Va., USA). Cell culture flasks and 384-well microplates were acquired from VWR (Radnor, Pa., USA).
`O=C1CCC(N2C(=O)c3cccc4cccc2c34)C(=O)N1` (centres unmarked) [Compound 139, 3-(2-oxobenzo[cd]indol-1(2H)-yl)piperidine-2,6-dione] gave an IC50 of under 100 nM.
Work on `O=C1CCC(N2C(=O)c3cccc4c(Cc5cn(C6CCN(CC7(C(F)(F)F)CC7)CC6)nc5Cl)ccc2c34)C(=O)N1` (centres unmarked) [Compound 201, 3-[6-[[3-chloro-1-[1-[[1-(trifluoromethyl)cyclopropyl]methyl]-4-piperidyl]pyrazol-4-yl]methyl]-2-oxo-benzo[cd]indol-1-yl]piperidine-2,6-dione] yielded an IC50 of under 1 nM.

Same assay, conditions: 96 h, NCIH929.1 cell viability, 96 hr, top concentration 1 μM, 14 points half log titration; read-out: IC50
`COC1(CN2CCC(C)(n3cc(Cc4ccc5c6c(cccc46)C(=O)N5C4CCC(=O)NC4=O)cn3)CC2)CCC1` (centres unmarked) [Compound 103, 3-(6-((1-(1-((1-methoxycyclobutyl)methyl)-4-methylpiperidin-4-yl)-1H-pyrazol-4-yl)methyl)-2-oxobenzo[cd]indol-1(2H)-yl)piperidine-2,6-dione] showed an IC50 of under 1 nM.
`CC1(CN2CCC(C)(n3cc(Cc4ccc5c6c(cccc46)C(=O)N5C4CCC(=O)NC4=O)cn3)CC2)CC1` (centres unmarked) [Compound 100, 3-(6-((1-(4-methyl-1-((1-methylcyclopropyl)methyl)piperidin-4-yl)-1H-pyrazol-4-yl)methyl)-2-oxobenzo[cd]indol-1(2H)-yl)piperidine-2,6-dione] gave an IC50 of under 1 nM.
`CC1(n2cc(Cc3ccc4c5c(cccc35)C(=O)N4C3CCC(=O)NC3=O)cn2)CCCCC1` (centres unmarked) [Compound 198, 3-[6-[[1-(1-methylcyclohexyl)pyrazol-4-yl]methyl]-2-oxo-benzo[cd]indol-1-yl]piperidine-2,6-dione] gave an IC50 of under 1 nM.
Compound `CC(C)(C)OC(=O)N1CCC(n2cc(Cc3ccc4c5c(cccc35)C(=O)N4C3CCC(=O)NC3=O)cn2)CC1` (single isomer, unassigned) [Compound 141, tert-butyl 4-[4-[[1-[2,6-dioxo-3-piperidyl]-2-oxo-benzo[cd]indol-6-yl]methyl]pyrazol-1-yl]piperidine-1-carboxylate] has an IC50 of under 1 nM.
`CC1(n2cc(Cc3ccc4c5c(cccc35)C(=O)N4C3CCC(=O)NC3=O)cn2)CCN(CC2(C(F)(F)F)CC2)CC1` (centres unmarked) [Compound 105, 3-(6-((1-(4-methyl-1-((1-(trifluoromethyl)cyclopropyl)methyl)piperidin-4-yl)-1H-pyrazol-4-yl)methyl)-2-oxobenzo[cd]indol-1(2H)-yl)piperidine-2,6-dione] was tested, and the IC50 was under 1 nM.
With `CC1(C(=O)N2CCC(C)(n3cc(Cc4ccc5c6c(cccc46)C(=O)N5C4CCC(=O)NC4=O)cn3)CC2)COC1` (centres unmarked) [Compound 94, 3-(6-((1-(4-methyl-1-(3-methyloxetane-3-carbonyl)piperidin-4-yl)-1H-pyrazol-4-yl)methyl)-2-oxobenzo[cd]indol-1(2H)-yl)piperidine-2,6-dione] the IC50 was under 1 nM.
Compound `CN(Cc1ccc(Cc2ccc3c4c(cccc24)C(=O)N3C2CCC(=O)NC2=O)cc1)c1ccccc1` (centres unmarked) [Compound 229, 3-(6-(4-((methyl(phenyl)amino)methyl)benzyl)-2-oxobenzo[cd]indol-1(2H)-yl)piperidine-2,6-dione] has an IC50 of under 1 nM.
Work on `CC(C)(C)C(=O)N1CCC(C)(n2cc(Cc3ccc4c5c(cccc35)C(=O)N4C3CCC(=O)NC3=O)cn2)CC1` (centres unmarked) [Compound 93] yielded an IC50 of under 1 nM.
For `N#Cc1ccc(N2CCC(Oc3ccc(Cc4ccc5c6c(cccc46)C(=O)N5C4CCC(=O)NC4=O)cc3)CC2)c(F)c1` (centres unmarked) [Compound 171, 4-[4-[4-[[1-(2,6-dioxo-3-piperidyl)-2-oxo-benzo[cd]indol-6-yl]methyl]phenoxy]-1-piperidyl]-3-fluoro-benzonitrile], the IC50 was under 1 nM.
With `N#Cc1ccc(N2CCN(Cc3ccc(Cc4ccc5c6c(cccc46)C(=O)N5C4CCC(=O)NC4=O)cc3)CC2)c(F)c1` (racemic) [Compound 183, 4-[4-[[4-[[1-(2,6-dioxo-3-piperidyl)-2-oxo-benzo[cd]indol-6-yl]methyl]phenyl]methyl]piperazin-1-yl]-3-fluoro-benzonitrile] the IC50 was under 1 nM.
For `COC1(CN2CCC(C)(n3cc(Cc4ccc5c6c(cccc46)C(=O)N5C4CCC(=O)NC4=O)cn3)CC2)CC1` (centres unmarked) [Compound 101, 3-(6-((1-(1-((1-methoxycyclopropyl)methyl)-4-methylpiperidin-4-yl)-1H-pyrazol-4-yl)methyl)-2-oxobenzo[cd]indol-1(2H)-yl)piperidine-2,6-dione], the IC50 was under 1 nM.
`CC1(C(=O)N2CCN(c3cnn(Cc4ccc5c6c(cccc46)C(=O)N5C4CCC(=O)NC4=O)c3)CC2)CCC1` (centres unmarked) [Compound 246, 3-(6-((4-(4-(1-methylcyclobutane-1-carbonyl)piperazin-1-yl)-1H-pyrazol-1-yl)methyl)-2-oxobenzo[cd]indol-1(2H)-yl)piperidine-2,6-dione] showed an IC50 of under 1 nM.
`CC1(n2cc(Cc3ccc4c5c(cccc35)C(=O)N4C3CCC(=O)NC3=O)cn2)CCN(C(=O)C(C)(C)C(F)(F)F)CC1` (centres unmarked) [Compound 82, 3-(6-((1-(4-methyl-1-(3,3,3-trifluoro-2,2-dimethylpropanoyl)piperidin-4-yl)-1H-pyrazol-4-yl)methyl)-2-oxobenzo[cd]indol-1(2H)-yl)piperidine-2,6-dione] was tested, and the IC50 was under 1 nM.
For `CC1(n2cc(Cc3ccc4c5c(cccc35)C(=O)N4C3CCC(=O)NC3=O)cn2)CCN(CC2(F)CC2)CC1` (centres unmarked) [Compound 106, 3-(6-((1-(1-((1-fluorocyclopropyl)methyl)-4-methylpiperidin-4-yl)-1H-pyrazol-4-yl)methyl)-2-oxobenzo[cd]indol-1(2H)-yl)piperidine-2,6-dione], the IC50 was under 1 nM.
In the case of `CC(C1CCC1)N1CCC(n2cc(Cc3ccc4c5c(cccc35)C(=O)N4C3CCC(=O)NC3=O)cn2)CC1` (single isomer, unassigned) [Compound 280, 3-[6-[[1-[1-[1-cyclobutylethyl]-4-piperidyl]pyrazol-4-yl]methyl]-2-oxo-benzo[cd]indol-1-yl]piperidine-2,6-dione], the IC50 is reported as under 1 nM.
With `O=C1CC[C@H](N2C(=O)c3cccc4c(Cc5ccc(CN6CCC7(CCCO7)CC6)cc5)ccc2c34)C(=O)N1` (single isomer, unassigned) [Compound 216, 3-[6-[[4-(1-oxa-8-azaspiro[4.5]decan-8-ylmethyl)phenyl]methyl]-2-oxo-benzo[cd]indol-1-yl]piperidine-2,6-dione] the IC50 was under 1 nM.
Compound `CC1(C(=O)N2CCC(n3cc(Nc4ccc5c6c(cccc46)C(=O)N5C4CCC(=O)NC4=O)c(Cl)n3)CC2)CCC1` (centres unmarked) [Compound 251, 3-[6-[[3-chloro-1-[1-(1-methylcyclobutanecarbonyl)-4-piperidyl]pyrazol-4-yl]amino]-2-oxo-benzo[cd]indol-1-yl]piperidine-2,6-dione] has an IC50 of under 100 nM.
With `C#CCOc1ccc2c3c(cccc13)C(=O)N2C1CCC(=O)NC1=O` (centres unmarked) [Compound 137, 3-(2-oxo-6-prop-2-ynoxy-benzo[cd]indol-1-yl)piperidine-2,6-dione] the IC50 was under 100 nM.
With `N#Cc1ccc(N2CCN(Cc3ccc(Cc4ccc5c6c(cccc46)C(=O)N5C4CCC(=O)NC4=O)cc3)C3(CC3)C2)c(F)c1` (centres unmarked) [Compound 131, 4-[4-[[4-[[1-(2,6-dioxo-3-piperidyl)-2-oxo-benzo[cd]indol-6-yl]methyl]phenyl]methyl]-4,7-diazaspiro[2.5]octan-7-yl]-3-fluoro-benzonitrile] the IC50 was under 1 nM.
`CC(C)(C)C(=O)N1CCC(n2cc(Cc3ccc4c5c(cccc35)C(=O)N4C3CCC(=O)NC3=O)cn2)CC1` (centres unmarked) [Compound 44, 3-(2-oxo-6-((1-(1-pivaloylpiperidin-4-yl)-1H-pyrazol-4-yl)methyl)benzo[cd]indol-1(2H)-yl)piperidine-2,6-dione] gave an IC50 of under 1 nM.
`COC(=O)c1ccc2c3c(cccc13)C(=O)N2C1CCC(=O)NC1=O` (centres unmarked) [Compound 124, methyl 1-(2,6-dioxo-3-piperidyl)-2-oxo-benzo[cd]indole-6-carboxylate] was tested, and the IC50 was over 999 nM.
In the case of `O=C1CCC(N2C(=O)c3cccc4c(Cc5ccc(CN6CCC(Cc7ccc(F)cc7)CC6)cc5)ccc2c34)C(=O)N1` (centres unmarked) [Compound 157, 3-[6-[[4-[[4-[(4-fluorophenyl)methyl]-1-piperidyl]methyl]phenyl]methyl]-2-oxo-benzo[cd]indol-1-yl]piperidine-2,6-dione], the IC50 is reported as under 1 nM.
`CC1(n2cc(Cc3ccc4c5c(cccc35)C(=O)N4C3CCC(=O)NC3=O)cn2)CCNCC1` (centres unmarked) [Compound 69, 3-(6-((1-(4-methylpiperidin-4-yl)-1H-pyrazol-4-yl)methyl)-2-oxobenzo[cd]indol-1(2H)-yl)piperidine-2,6-dione hydrochloride] showed an IC50 of under 100 nM.
Work on `CC(c1cnn(C2CCN(C(=O)C3(C)CCC3)CC2)c1)c1ccc2c3c(cccc13)C(=O)N2C1CCC(=O)NC1=O` (single isomer, unassigned) [Compound 148, 3-(6-(1-(1-(1-(1-methylcyclobutane-1-carbonyl)piperidin-4-yl)-1H-pyrazol-4-yl)ethyl)-2-oxobenzo[cd]indol-1(2H)-yl)piperidine-2,6-dione] yielded an IC50 of under 1 nM.
With `NCC1(n2cc(Cc3ccc4c5c(cccc35)C(=O)N4C3CCC(=O)NC3=O)cn2)CCN(C(=O)C2(C(F)(F)F)CC2)CC1` (centres unmarked) [Compound 194, 3-[6-[[1-[4-(aminomethyl)-1-[1-(trifluoromethyl)cyclopropanecarbonyl]-4-piperidyl]pyrazol-4-yl]methyl]-2-oxo-benzo[cd]indol-1-yl]piperidine-2,6-dione] the IC50 was under 100 nM.

Same assay, conditions: NCIH929.1 cell viability, 96 hr, top concentration 1 μM, 14 points half log titration; read-out: IC50
`O=C1CCC(N2C(=O)c3cccc4c(Cc5cnn(C6CCN(C7CCC78CCC8)CC6)c5)ccc2c34)C(=O)N1` (single isomer, unassigned) [Compound 245, 3-{2-Oxo-6-[1-(1-spiro[3.3]hept-1-yl-piperidin-4-yl)-1H-pyrazol-4-ylmethyl]-2H-benzo[cd]indol-1-yl}-piperidine-2,6-dione] gave an IC50 of under 1 nM.
For `O=C1CCC(N2C(=O)c3cccc4c(Cc5ccc(CN6CCN(c7ccc(Cl)cc7F)CC6)cc5)ccc2c34)C(=O)N1` (single isomer, unassigned) [Compound 255, 3-[6-[[4-[[4-(4-chloro-2-fluoro-phenyl)piperazin-1-yl]methyl]phenyl]methyl]-2-oxo-benzo[cd]indol-1-yl]piperidine-2,6-dione], the IC50 was under 1 nM.
